US20130143902A1, “COMPOSITIONS AND METHODS OF TREATING A PROLIFERATIVE DISEASE WITH A QUINAZOLINONE DERIVATIVE” (GILEAD CALISTOGA LLC, priority 2011, published 2013)
pEC50, pIC50: −log10 of the molar value.

Assays:
[1] = target: T1, PI3K p110β (Homo sapiens, UniProt P42338); experiment: SelectScreen in vitro kinase inhibitor assay, p110β; type: biochemical
T1 construct: purchased Invitrogen Ltd. (SelectScreen service)

[2] = target: T2, PI3K p110γ (Homo sapiens, UniProt P48736); experiment: SelectScreen in vitro kinase inhibitor assay, p110γ; type: biochemical; conditions: ATP at Km
T2 sequence (P48736 whole entry): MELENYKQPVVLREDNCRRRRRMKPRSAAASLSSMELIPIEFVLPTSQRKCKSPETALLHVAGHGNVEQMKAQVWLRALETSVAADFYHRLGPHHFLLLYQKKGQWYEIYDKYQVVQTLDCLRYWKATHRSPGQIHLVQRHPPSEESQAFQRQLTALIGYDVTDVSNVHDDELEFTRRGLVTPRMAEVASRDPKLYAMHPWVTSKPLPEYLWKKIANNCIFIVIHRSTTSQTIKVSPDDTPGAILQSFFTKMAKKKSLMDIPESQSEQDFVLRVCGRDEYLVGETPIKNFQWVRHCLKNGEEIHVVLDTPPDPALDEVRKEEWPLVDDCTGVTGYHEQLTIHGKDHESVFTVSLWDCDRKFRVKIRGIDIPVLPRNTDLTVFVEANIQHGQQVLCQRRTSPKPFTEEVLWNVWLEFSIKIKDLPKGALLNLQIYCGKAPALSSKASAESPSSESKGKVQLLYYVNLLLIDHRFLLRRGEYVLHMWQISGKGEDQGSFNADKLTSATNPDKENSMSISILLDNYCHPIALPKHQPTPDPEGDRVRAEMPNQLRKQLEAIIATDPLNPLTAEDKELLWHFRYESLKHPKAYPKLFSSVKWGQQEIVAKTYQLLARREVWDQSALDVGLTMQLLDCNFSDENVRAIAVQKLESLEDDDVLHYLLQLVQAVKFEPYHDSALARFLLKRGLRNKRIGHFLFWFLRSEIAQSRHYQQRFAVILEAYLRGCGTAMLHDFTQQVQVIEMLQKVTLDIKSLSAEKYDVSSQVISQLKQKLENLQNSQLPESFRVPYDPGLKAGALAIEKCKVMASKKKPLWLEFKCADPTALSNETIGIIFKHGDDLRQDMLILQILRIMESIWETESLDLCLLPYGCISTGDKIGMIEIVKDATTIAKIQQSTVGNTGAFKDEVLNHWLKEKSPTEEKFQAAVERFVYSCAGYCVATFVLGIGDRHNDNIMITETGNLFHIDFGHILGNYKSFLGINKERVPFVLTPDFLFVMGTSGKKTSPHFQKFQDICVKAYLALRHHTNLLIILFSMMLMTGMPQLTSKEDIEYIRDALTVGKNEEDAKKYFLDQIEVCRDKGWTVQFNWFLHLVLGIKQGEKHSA

[3] = target: T3, PI3K p110δ (Homo sapiens, UniProt O00329); experiment: SelectScreen in vitro kinase inhibitor assay, p110δ; type: biochemical
T3 construct: endogenous in cells; host or cells: basophils in isolated PBMC or whole blood
T3 sequence (O00329 whole entry): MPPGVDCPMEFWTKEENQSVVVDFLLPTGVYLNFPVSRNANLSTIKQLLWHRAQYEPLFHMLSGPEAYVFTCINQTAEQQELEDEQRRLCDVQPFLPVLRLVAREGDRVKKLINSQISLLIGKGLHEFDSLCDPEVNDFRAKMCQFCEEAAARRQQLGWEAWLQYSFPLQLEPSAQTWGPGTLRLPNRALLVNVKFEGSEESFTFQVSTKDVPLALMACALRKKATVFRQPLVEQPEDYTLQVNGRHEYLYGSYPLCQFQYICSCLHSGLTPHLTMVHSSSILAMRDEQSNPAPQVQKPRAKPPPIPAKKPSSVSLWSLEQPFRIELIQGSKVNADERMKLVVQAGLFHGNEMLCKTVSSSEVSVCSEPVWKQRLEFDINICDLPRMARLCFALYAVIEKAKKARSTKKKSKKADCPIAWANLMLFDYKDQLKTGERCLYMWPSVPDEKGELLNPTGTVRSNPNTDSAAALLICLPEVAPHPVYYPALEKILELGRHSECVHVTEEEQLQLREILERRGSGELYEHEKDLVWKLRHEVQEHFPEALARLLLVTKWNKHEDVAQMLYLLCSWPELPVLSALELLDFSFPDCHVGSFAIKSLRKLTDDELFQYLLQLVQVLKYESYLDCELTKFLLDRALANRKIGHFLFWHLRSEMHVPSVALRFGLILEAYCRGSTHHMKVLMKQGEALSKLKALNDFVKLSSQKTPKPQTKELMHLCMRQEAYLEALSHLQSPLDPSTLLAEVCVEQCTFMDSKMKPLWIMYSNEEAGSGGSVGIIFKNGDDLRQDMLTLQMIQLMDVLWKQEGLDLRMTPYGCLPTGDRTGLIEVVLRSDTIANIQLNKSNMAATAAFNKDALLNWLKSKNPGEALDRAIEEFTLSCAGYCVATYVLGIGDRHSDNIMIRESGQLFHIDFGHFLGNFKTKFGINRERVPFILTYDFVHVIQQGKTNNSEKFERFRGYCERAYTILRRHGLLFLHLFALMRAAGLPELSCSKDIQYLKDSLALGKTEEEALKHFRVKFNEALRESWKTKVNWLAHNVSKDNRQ
T3 sequence (P27986 whole entry partner): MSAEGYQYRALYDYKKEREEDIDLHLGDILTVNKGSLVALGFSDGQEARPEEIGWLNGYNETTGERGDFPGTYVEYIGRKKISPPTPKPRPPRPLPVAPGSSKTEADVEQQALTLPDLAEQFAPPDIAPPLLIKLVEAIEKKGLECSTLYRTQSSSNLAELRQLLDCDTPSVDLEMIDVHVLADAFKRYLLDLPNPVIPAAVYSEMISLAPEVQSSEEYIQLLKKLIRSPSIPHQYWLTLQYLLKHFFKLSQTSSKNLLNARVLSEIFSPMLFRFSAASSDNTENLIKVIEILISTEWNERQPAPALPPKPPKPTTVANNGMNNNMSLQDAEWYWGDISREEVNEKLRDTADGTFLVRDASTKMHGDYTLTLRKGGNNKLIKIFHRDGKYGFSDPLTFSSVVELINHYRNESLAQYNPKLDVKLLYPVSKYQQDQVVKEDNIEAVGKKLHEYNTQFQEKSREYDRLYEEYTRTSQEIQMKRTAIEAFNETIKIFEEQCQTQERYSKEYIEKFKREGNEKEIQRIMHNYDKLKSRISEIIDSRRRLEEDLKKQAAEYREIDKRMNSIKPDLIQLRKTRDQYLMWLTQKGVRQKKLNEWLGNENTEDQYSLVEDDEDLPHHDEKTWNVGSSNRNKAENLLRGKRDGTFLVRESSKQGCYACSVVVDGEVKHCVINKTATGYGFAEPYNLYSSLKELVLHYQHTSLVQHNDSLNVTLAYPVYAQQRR

[4] = target: PI3K p110α (Mus musculus, UniProt P42337); experiment: Cellular p110α signaling: PDGF-stimulated MEFs, pAkt Western blot; type: cell-based, murine; conditions: cellular assay, MEFs, PDGF; read-out: EC50 p110α
Method: (§4) To analyze PI3K p110α and p110β signaling, murine embryo fibroblast (MEFs) were removed from FBS and starved for 2 hours followed by stimulation with 10 ng/mL of PDGF (Cell Signaling Technologies, Danvers, Mass.) or 10 μM of LPA (Echelon, Salt Lake City, Utah) for 10 minutes at 37° C., respectively. After washing once in cold phosphate-buffered saline (PBS), the cell pellet was resuspended in 1× cell lysis buffer (Cell Signaling Technologies) supplemented with mini protease inhibitor mix (Roche, Indianapolis, Ind.), phosphate inhibitor cocktail set I and II (Calbiochem, San Diego, Calif.) for 15 minutes on ice. Whole-cell lysates were obtained by centrifugation at 16,000 g for 10 minutes at 4° C., and the soluble protein was analyzed by Western blotting for Akt and pAkt levels. To analyze PI3K p110δ and p110γ signaling, basophil activation was measured in isolated PBMC or whole blood using the Flow2 CAST kit according to the manufacture's standardized methods (Buhlman Laboratories AG, Switzerland). Briefly, p110δ was activated with anti-FCεRI and p110γ was activated with fMLP (2 μM) in the absence or presence of compounds. To monitor the basophil cell population and cellular activation, anti-CD63-FITC and anti-CCR3-PE antibodies were added to each sample. Cells were fixed and analyzed on a FC500 MPL flow cytometer (Beckman Coulter, Brea, Calif.).

[5] = target: T4, PI3K p110β (Mus musculus, UniProt Q8BTI9); experiment: Cellular p110β signaling: LPA-stimulated MEFs, pAkt Western blot; type: cell-based, murine; conditions: cellular assay, read-out: EC50 p110β
T4 construct: endogenous in cells; host or cells: murine embryo fibroblasts (MEFs)
T4 sequence (Q8BTI9 whole entry): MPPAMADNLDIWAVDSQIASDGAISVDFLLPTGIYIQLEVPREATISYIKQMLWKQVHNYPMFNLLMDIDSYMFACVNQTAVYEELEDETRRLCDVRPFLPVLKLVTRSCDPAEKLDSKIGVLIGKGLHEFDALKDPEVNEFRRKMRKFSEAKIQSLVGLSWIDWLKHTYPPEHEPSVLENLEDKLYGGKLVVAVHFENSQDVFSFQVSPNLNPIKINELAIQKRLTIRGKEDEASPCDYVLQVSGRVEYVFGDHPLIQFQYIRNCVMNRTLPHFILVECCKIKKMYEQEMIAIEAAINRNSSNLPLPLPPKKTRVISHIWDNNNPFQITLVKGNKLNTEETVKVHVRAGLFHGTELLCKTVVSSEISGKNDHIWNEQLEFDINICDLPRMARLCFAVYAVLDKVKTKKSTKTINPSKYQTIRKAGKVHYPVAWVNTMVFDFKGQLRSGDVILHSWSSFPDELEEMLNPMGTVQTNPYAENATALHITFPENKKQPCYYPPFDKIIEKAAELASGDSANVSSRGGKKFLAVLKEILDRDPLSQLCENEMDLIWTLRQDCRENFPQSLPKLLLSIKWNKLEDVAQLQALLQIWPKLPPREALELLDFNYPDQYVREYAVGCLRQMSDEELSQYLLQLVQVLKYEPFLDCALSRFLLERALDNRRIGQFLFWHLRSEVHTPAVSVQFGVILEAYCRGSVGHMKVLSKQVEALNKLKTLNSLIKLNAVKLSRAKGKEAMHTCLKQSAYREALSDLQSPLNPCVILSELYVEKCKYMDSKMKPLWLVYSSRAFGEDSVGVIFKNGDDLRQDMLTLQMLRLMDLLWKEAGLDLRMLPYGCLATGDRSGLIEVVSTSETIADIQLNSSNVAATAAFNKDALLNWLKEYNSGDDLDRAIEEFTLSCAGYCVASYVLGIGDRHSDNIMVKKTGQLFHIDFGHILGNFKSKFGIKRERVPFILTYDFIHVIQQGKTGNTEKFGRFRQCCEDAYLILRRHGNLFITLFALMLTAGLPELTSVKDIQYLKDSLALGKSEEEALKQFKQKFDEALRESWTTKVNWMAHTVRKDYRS
T4 sequence (P26450 whole entry partner): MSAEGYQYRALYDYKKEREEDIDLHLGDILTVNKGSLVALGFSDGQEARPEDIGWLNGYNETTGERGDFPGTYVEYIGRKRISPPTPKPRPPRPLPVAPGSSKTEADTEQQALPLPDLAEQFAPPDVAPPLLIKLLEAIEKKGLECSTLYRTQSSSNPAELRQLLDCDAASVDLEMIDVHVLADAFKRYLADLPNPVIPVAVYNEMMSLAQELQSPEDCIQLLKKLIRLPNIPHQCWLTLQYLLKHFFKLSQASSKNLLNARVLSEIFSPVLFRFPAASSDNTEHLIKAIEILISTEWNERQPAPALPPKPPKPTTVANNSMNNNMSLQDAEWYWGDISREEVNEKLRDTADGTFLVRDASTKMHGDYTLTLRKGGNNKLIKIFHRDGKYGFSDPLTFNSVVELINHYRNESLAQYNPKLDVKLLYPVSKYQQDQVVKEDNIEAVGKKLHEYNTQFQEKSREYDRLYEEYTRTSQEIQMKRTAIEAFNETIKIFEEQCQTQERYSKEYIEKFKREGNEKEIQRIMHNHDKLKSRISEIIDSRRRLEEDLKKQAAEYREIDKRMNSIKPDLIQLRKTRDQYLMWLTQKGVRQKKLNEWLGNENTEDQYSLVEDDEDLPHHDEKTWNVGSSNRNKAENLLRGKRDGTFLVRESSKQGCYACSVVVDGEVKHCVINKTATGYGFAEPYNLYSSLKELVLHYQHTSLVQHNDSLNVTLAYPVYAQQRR
Method: as §4

[6] = target: T3, PI3K p110δ; experiment: Cellular p110δ signaling: basophil activation with anti-FCεRI (Flow2 CAST); type: cell-based; conditions: cellular assay
Method: as §4

[7] = target: T5, PI3Kβ (p110 β) (Homo sapiens, UniProt P42338); experiment: TR-FRET enzymatic assay, PI3Kβ; type: biochemical
T5 construct: made in house
Method: (§5) Enzymatic activity of the class I PI3K isoforms was measured using a time resolved fluorescence resonance energy transfer assay (TR-FRET) that monitors formation of the product 3,4,5-inositol triphosphate molecule (PIP3), as it competes with fluorescently labeled PIP3 for binding to the GRP-1 pleckstrin homology domain protein. An increase in phosphatidylinositide 3-phosphate product results in a decrease in TR-FRET signal as the labeled fluorophore is displaced from the GRP-1 protein binding site. Class I PI3K isoforms were expressed and purified as heterodimeric recombinant proteins. All assay reagents and buffers for the TR-FRET assay were purchased from Millipore. […] After an assay reaction time of 30 minutes at 25° C., reactions were terminated with a final concentration of 10 mM EDTA, 10 nM labeled-PIP3, and 35 nM Europium labeled GRP-1 detector protein before reading TR-FRET on an Envision plate reader. IC50 values were calculated from the fit of the dose-response curves to a four-parameter equation. All IC50 values represent geometric mean values of a minimum of four determinations. These assays generally produced results within 3-fold of the reported mean.

[8] = target: T6, PI3Kδ (p110δ) (Homo sapiens, UniProt O00329); experiment: TR-FRET enzymatic assay, PI3Kδ; type: biochemical
T6 construct: made in house
T6 sequence (O00329 whole entry): as the sequence (O00329 whole entry) above
T6 sequence (P27986 whole entry partner): as the sequence (P27986 whole entry partner) above
Method: as §5

[9] = target: T7, PI3Kγ (p110γ) (Homo sapiens, UniProt P48736); experiment: TR-FRET enzymatic assay, PI3Kγ; type: biochemical; conditions: 2×Km ATP, geometric mean of at least four determinations
T7 construct: made in house
T7 sequence (P48736 whole entry, species assumed): as the sequence (P48736 whole entry) above
Method: as §5

[10] = system: Solid tumor; experiment: Cellular viability, solid tumor; type: cell-based; conditions: N = 14
Method: (§1) For primary T-ALL samples, cell viability was determined using the BD Cell Viability kit (BD Biosciences) and fluorescent counting beads as previously described in Armstrong, F. et al., NOTCH is a key regulator of human T-cell acute leukemia initiating cell activity, Blood 113, 1730-1740 (2009). Cells were plated with MS5-DL1 stroma cells. After 72 hours following treatment, cells were harvested and stained with an APC-conjugated anti-human CD45 according to the manufacturer's instructions. For solid tumor cell lines, cellular viability was determined using the AlamarBlue kit (Invitrogen). About 10,000 cells in 100 μL of media containing 10% FBS were aliquoted into individual wells of a 96-well plate and treated with vehicle (DMSO) or compound in triplicate for 24 hours. Ten μL of AlamarBlue reagent was added to each well and incubated for 4 hours at 37° C. with 5% CO2. Fluorescence was measured with an excitation wavelength at 530 to 560 nm and emission wavelength at 590 nm using Spectramax M5 plate reader (Molecular Devices, Sunnyvale, Calif.).
(§2) Cellular viability and pAkt activity were used to determine effects of Compounds A, C, and D in solid tumor, B-cell malignancies, and T-cell malignancies.

[11] = system: pAkt in solid tumor; experiment: pAkt activity, solid tumor; type: cell-based; conditions: N = 14
From the text: as §2

[12] = system: B Cell Malignancies; experiment: Cellular viability, B cell malignancies; type: cell-based; conditions: N = 7
From the text: as §2

[13] = system: pAkt in B Cell Malignancies; experiment: pAkt activity, B cell malignancies; type: cell-based; conditions: N = 7
From the text: as §2

[14] = system: T Cell Malignancies; experiment: Cellular viability, T cell malignancies; type: cell-based; conditions: N = 7
From the text: as §2

[15] = system: pAkt in T Cell Malignancies; experiment: pAkt activity, T cell malignancies; type: cell-based; conditions: N = 7
From the text: as §2

[16] = target: PI3K p110α (Homo sapiens, UniProt P42336); experiment: biochemical
[17] = target: PI3Kα (p110α) (Homo sapiens, UniProt P42336); experiment: biochemical
Method: Enzymatic activity of the class I PI3K isoforms was measured using a time resolved fluorescence resonance energy transfer assay (TR-FRET) that monitors formation of the product 3,4,5-inositol triphosphate molecule (PIP3), as it competes with fluorescently labeled PIP3 for binding to the GRP-1 pleckstrin homology domain protein. An increase in phosphatidylinositide 3-phosphate product results in a decrease in TR-FRET signal as the labeled fluorophore is displaced from the GRP-1 protein binding site. Class I PI3K isoforms were expressed and purified as heterodimeric recombinant proteins. All assay reagents and buffers for the TR-FRET assay were purchased from Millipore. […] IC50 values were calculated from the fit of the dose-response curves to a four-parameter equation. All IC50 values represent geometric mean values of a minimum of four determinations. These assays generally produced results within 3-fold of the reported mean.

[18] = target: T2, PI3K p110γ; experiment: Cellular p110γ signaling: basophil activation with fMLP (Flow2 CAST); type: cell-based; design: endogenous in cells; host or cells: basophils in isolated PBMC or whole blood; conditions: cellular assay
Method: as §4

[19] = system: PTEN null T-ALL; experiment: Diseased Lck/PTEN^fl/fl mice with PTEN null T-ALL; type: in vivo
Method: Mouse whole blood was incubated with appropriate antibodies and processed using the BD Bioscience BD FACS Lysing Solution according to the manufacturer's instructions. Immediately after lysis, cells were permeabilized with 0.025% Tween-20 in lysing solution for 15 minutes, then incubated with Ki67 antibodies. Single cell suspensions of thymocytes were isolated and stained with the appropriate antibodies as described in Swat, W. et al., Essential role of PI3 Kdelta and PI3 Kgamma in thymocyte survival, Blood 107, 2415-2422 (2006).
All mice were kept in specific pathogen-free facility at Columbia University Medical Center. All procedures were performed in accordance with the guidelines of the Institutional Animal Care and Use Committee. Lck-cre, NOD.Cg-Prkdc^scid Il2rg^tmlWjl/Sz and Gt(ROSA)26Sor^tml(Luc)Kael/J mice were obtained from the Jackson Laboratory. Mice deficient for PTEN in the T-cell lineage were generated by crossing Lck-cre with floxed PTEN. P110γ^−/− and p110δ^−/− mice as described in Swat, W. et al., Essential role of PI3 Kdelta and PI3 Kgamma in thymocyte survival, Blood 107, 2415-2422 (2006). The animals were intercrossed with Lck-cre/PTEN^fl/fl animals to generate mice homozygous mutant for either p110γ or p110δ and PTEN or homozygous mutant for p110γ, 110δ, and PTEN.
Lck/PTEN^fl/fl mice were crossed with the mice having a luciferase cDNA, preceded by a LoxP-stop-LoxP cassette was introduced into the ubiquitously expressed ROSA26 locus. […] The results are consistent with the reduction in whole blood cells and CD4 single positive population of tumor cells.
Lck/PTEN^fl/fl mice having T-ALL were administered with Compound B at an oral dose of 10 mg/kg every 8 hours or DMSO vehicle for a period of 7 days. […] Compound B extended the median survival to 45 days compared to 7.5 days for the vehicle group (data not shown).
Diseased Lck/PTEN^fl/fl mice (i.e. Lck/PTEN^fl/fl mice diagnosed with T-ALL) were treated with Compounds B for a period of 7 days. Mice were examined for sequential blood counts, peripheral smears, and flow cytometric analyses. […] Forward scatter (FSC) and Ki67 staining were indicators of cell size and proliferation, respectively; and apoptosis was detected by assessing the […] population after PI staining.
PTEN^fl/fl mice were crossed with the mice having a luciferase cDNA, preceded by a LoxP-stop-LoxP cassette was introduced into the ubiquitously expressed ROSA26 locus. Progeny were then crossed with Lck-cre transgenics to delete PTEN in T-cell progenitors and induce expression of luciferase. Imaging on T-ALL tumor bearing mice was performed at Day 0 and 4 after treatment of Compound B or vehicle.

[20] = system: CCRF-CEM cells; experiment: Proliferation and apoptosis of CCRF-CEM cells; type: cell-based; conditions: 1, 2.5, or 5 μM, within 24 hours, persisted 4 days
Method: CCRF-CEM cells were obtained from ATCC and grown in RPMI-1640 medium containing 10% FBS and antibiotics.
Cell counts for mice thymii were determined as described in Swat, W. et al., Essential role of PI3 Kdelta and PI3 Kgamma in thymocyte survival, Blood 107, 2415-2422 (2006). Cell proliferation of untransfected or shRNA transfected CCRF-CEM cells was followed by cell counting of samples in triplicate using a hemocytometer.
Cells were stained with APC-conjugated Annexin-V (BD Biosciences) in Annexin Binding Buffer (Miltyeni Biotec) and analyzed by flow cytometry.
CCRF-CEM cells, a PTEN null acute lymphoblastoid leukemia cell line, were treated with Compound B of 1, 2.5, or 5 μM or control of DMSO vehicle for a period of 4 days.

[21] = system: CCRF-CEM cells; experiment: Immunoblot of signaling and pro-apoptotic pathways in CCRF-CEM cells; type: cell-based
Method: Cell lysates (from cell lines or thymocytes) were prepared on ice in M-PER Mammalian Protein Extraction reagent (Pierce) containing a cocktail of protease and phosphatase inhibitors as described in Swat, W. et al., Essential role of PI3 Kdelta and PI3 Kgamma in thymocyte survival, Blood 107, 2415-2422 (2006). Equal amounts of total protein from lysates were separated using SDS-PAGE, transferred to PVDF membrane (Immobilon-P, Millipore). Membranes were incubated overnight incubation with appropriate primary antibodies. Bound antibodies were visualized with HRP-conjugated secondary antibodies and ECL chemistry (SuperPico West, Pierce).
The ability of Compound B treatment to interfere with proapoptotic effectors such as the BH3-only pro-apoptotic protein BAD and to repress the expression of BIM was also examined. CCRF-CEM cells were treated with Compound B ranging from 0, 0.25, 0.5, 1.0, 2.5, 5.0 and 10 μM.

[22] = system: CCRF-CEM xenografts; experiment: Subcutaneous CCRF-CEM xenograft, bioluminescence; type: in vivo, mice; conditions: 10 mg/kg for 4 days, subcutaneous tumors
Method: Luminescent CCRF-CEM (CEM-luc) cells were generated by lentiviral infection with FUW-luc and selection with neomycin. Luciferase expression was verified with the Dual-Luciferase Reporter Assay kit (Promega). CEM-luc cells (2.5×10^6) embedded in Matrigel (BD Biosciences) were injected in the flank of NOD.Cg-Prkdc^scid Il2rg^tmlWjl/Sz mice. After 1 week, mice were treated by oral gavage with vehicle (0.5% methyl cellulose, 0.1% Tween-80) or compound every 8 hours daily for 4 days. Mice were anesthetized by isoflurane inhalation […] of D-luciferin ([…], Xenogen). Photonic emission was imaged with the In Vivo Imaging System (IVIS, Xenogen). Tumor bioluminescence was quantified by integrating the photonic flux (photons per second) through a region encircling each tumor using the LIVING IMAGES software package (Xenogen).
(§3) To assess the in vivo relevance of these observations, mice with subcutaneous or intravenous CCRF-CEM cells were treated with either Compound B or DMSO vehicle. In the subcutaneous xenographs, luciferase expressing CCRF-CEM cells were injected into the flanks of immunodeficient mice and allowed to grow for 1 week before administering vehicle control or 10 mg/kg of Compound B for a period of 4 days. In the intravenous xenographs, treatment commenced 3-day post-injection of tumor cells for a period of 7 days.

[23] = system: CCRF-CEM xenograft; experiment: Intravenous (systemic) CCRF-CEM xenograft, survival; type: in vivo, mice; conditions: treatment for 7 days from 3 days post-injection; vehicle control 23 days
Method: CCRF-CEM cells (5×10^6) were injected intravenously in fourteen NOD.Cg-Prkdc^scid Il2rg^tmlWjl/Sz mice. After 3 days, mice were segregated into two groups that received compound or vehicle for 7 days. Mice in both groups were then followed until moribund and euthanized.
as §3

[24] = system: primary T-ALL tumors; experiment: Viability of primary T-ALL tumors; type: cell-based, human; conditions: 1.0, 2.5, and 5.0 μM, 72 hours
Method: Cryopreserved samples from the Columbia Presbyterian Hospital, the Erasmus MC-Sophia Children's Hospital, and the University of Padua were used. All samples were collected with informed consent and supervised by the institutes' review boards and the Acute Lymphoblastic Leukemia Strategic Scientific Committee.
as §1, with “Calif.). […]” for “Calif.).”

## C[C@H](Nc1ncnc2[nH]cnc12)c1nc2ccc(F)cc2c(=O)n1-c1ccccc1 [Compound D]
[1]
  pIC50: 6.82
[2]
  pIC50: 7.60
[3]
  pIC50: 9.05
[4]
  pEC50: < 4.70
[5]
  pEC50: 5.92
[6]
  pEC50: 8.31
[7]
  pIC50: 5.47
[8]
  pIC50: 8.03
[9]
  pIC50: 6.00
[10]
  pEC50: 5.32
[11]
  pEC50: 6.01
[12]
  pEC50: 6.27
[13]
  pEC50: 6.46
[14]
  pEC50: 5.11
[15]
  pEC50: 6.01
[16]
  pIC50: 6.52
[17]
  pIC50: 5.11
[18]
  pEC50: 5.63

## Cc1ccccc1-n1c(C(C)Nc2nc(N)nc3[nH]cnc23)nc2cccc(C)c2c1=O (centres unmarked) [Compound B, 2-(1-(2-amino-9H-purin-6-ylamino)ethyl)-5-methyl-3-o-tolylquinazolin-4(3H)-one]
[19]; Compound B for 7 days, versus vehicle control, P<0.01
  weights of thymi, liver, spleen, and kidneys: significantly less
[19]; Compound B treatment for 7 days, by Day 4
  WBC: significant reduction
[19]; Compound B treatment, Day 4, versus vehicle
  bioluminescent imaging signals: dramatically lower
[19]; Compound B treatment, Day 4 through Day 7
  apoptosis (sub-G0 population after propidium iodide staining): increase in apoptosis
[19]; oral 10 mg/kg every 8 hours for 7 days, vehicle group 7.5 days
  median survival: 45 days
[20]
  apoptosis: promoted apoptosis
  proliferation: prevented proliferation
[21]; 0.25 to 10 μM
  phosphorylation of GSK3β and mTOR: reduction
[21]; Compound B treatment
  expression of BIM (including the L and S isoforms): enhanced expression
  phosphorylation of BAD: reduction
[21]; […]
  Akt/PKB (Ser473) phosphorylation: reduction and complete abrogation
[22]
  difference in luminescence, treated versus vehicle treated animals: 5 fold
[23]
  median survival time: 35 days
[24]
  viability of tumor cells: reduced

## CC[C@H](Nc1ncnc2[nH]cnc12)c1nc2cccc(F)c2c(=O)n1-c1ccccc1 [Compound C]
[4]
  pEC50: < 4.70
[5]
  pEC50: 5.72
[10]
  pEC50: 4.94
[12]
  pEC50: 6.18
[13]
  pEC50: 6.44
[14]
  pEC50: < 4.60
